target: T1, CYP1A2 (Homo sapiens, UniProt P05177); experiment: CYP450 inhibition in human liver microsomes, CYP1A2; format: in vitro ADME; conditions: pH 7.4, read-out: % CYP inhibition @ 10 µM 1A2
T1 construct: tissue Corning or Xenotech; host or cells: human liver microsomes
T1 sequence (P05177 1-516): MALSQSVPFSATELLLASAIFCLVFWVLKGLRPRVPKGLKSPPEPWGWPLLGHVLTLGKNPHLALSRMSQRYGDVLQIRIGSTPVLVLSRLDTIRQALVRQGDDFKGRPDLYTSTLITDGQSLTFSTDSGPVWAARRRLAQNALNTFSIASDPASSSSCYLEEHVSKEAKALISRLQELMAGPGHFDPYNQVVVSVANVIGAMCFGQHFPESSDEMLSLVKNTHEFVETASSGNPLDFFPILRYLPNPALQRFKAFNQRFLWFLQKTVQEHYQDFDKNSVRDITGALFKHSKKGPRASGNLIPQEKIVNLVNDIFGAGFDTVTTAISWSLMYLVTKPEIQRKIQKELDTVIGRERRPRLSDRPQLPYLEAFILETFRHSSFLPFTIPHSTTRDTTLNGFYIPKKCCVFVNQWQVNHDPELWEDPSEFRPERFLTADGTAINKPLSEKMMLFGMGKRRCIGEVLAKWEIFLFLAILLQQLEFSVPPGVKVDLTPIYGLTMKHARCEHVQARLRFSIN
Source text: According to standard methods in the field for the study of cytochrome P450 enzyme systems, such as the method described in Kerns, Edward H. and Di Li et al., Drug-like Properties: Concepts, Structure Design and Methods: from ADME to Toxicity Optimization (2008), San Diego, Academic Press, and Lin, Tong et al., In Vitro Assessment of Cytochrome P450 Inhibition: Strategies for Increasing LC/MS-Based Assay Throughput Using a One-Point IC50 Method and Multiplexing High-Performance Liquid Chromatography (J. Pharm. Sci. 2007, 96 (9), 2485). The inhibitory effect of the disclosed compounds on the cytochrome P450 enzyme system was similarly examined below.
Human liver microsomes were purchased from Corning or Xenotech. The test compounds were evaluated by detecting the metabolism of substrates for different Cyp450 isoforms by human liver microsomes.
0.1 M potassium phosphate buffer (K-buffer, pH 7.4) was pre-warmed.
100 mM K-buffer was prepared by mixing 9.5 mL of stock solution A (1 M potassium dihydrogen phosphate, prepared by dissolving 136.5 g of potassium dihydrogen phosphate in 1 L of Milli-Q water) with 40.5 mL of stock solution B (1 M potassium hydrogen phosphate, prepared by dissolving 174.2 g of potassium hydrogen phosphate in 1 L of Milli-Q water). The total volume was adjusted to 500 mL with Milli-Q water, and the buffer was titrated to pH 7.4 using KOH or H3PO4.
Test compound solution and specific inhibitor solution (400× dilution) were prepared in a 96-well plate. For the test compound, 8 µL of 10 mM test compound was transferred into 12 µL of ACN. For specific inhibitors of CYP1A2, CYP2C9, and CYP2D6: 12 µL of 1 mM α-naphthoflavone, 10 µL of 40 mM sulfaphenazole, 10 µL of 10 mM quinidine, and 8 µL of DMSO were mixed. For specific inhibitors of CYP3A4, CYP2B6, CYP2C8, and CYP2C19: 8 µL of DMSO stock solution was added to 12 µL of ACN.
A 4× diluted NADPH solution was prepared by dissolving 66.7 mg of NADPH in 10 mL of 0.1 M K-buffer (pH 7.4). […]

inhibition at 10 min, 10 µM	SMILES
17.1%	O=C(Nc1ccc(-c2cc3cc(F)c(-c4nnn[nH]4)cc3n2C2CCC2)cc1)C(=O)Nc1ccc(N2CCC(CO)CC2)cc1 [Example 23]
9.47%	O=C(Nc1ccc(-c2cc3cc(F)c(-c4nnn[nH]4)cc3n2C2CCC2)cc1)C(=O)Nc1ccc(N2CCC3(CCOC3)CC2)cc1 [Example 67]
11.4%	CC1(n2c(-c3ccc(NC(=O)C(=O)Nc4ccc(N5CCC6(CCOC6)CC5)cc4)cc3)cc3cc(F)c(-c4nnn[nH]4)cc32)CCC1 [Example 68]

From patent EP4741383A1, “COMPOUND AND USE THEREOF AS ANTI-CANCER DRUG” (Tyligand Bioscience (Shanghai) Limited, priority 2023, dated 2025)
